≈ marks a conversion by molar mass, not a printed value. Like-named read-outs stand apart in the source and are kept apart here.
Assays:
Type in all cases: cell-based
M. suipneumoniae TAM 6N = experiment: Anti-mycoplasmal activity in vitro MIC; settings: Mesomycoplasma hyopneumoniae, TAM6N, 144 h
Strep. pyogenes R80/421 = experiment: Human bacteria MIC; settings: Streptococcus pyogenes
Procedure: (§1) The values were determined by serial dilutions in nutrient agar with 5% chocolated horse blood after incubations for 18 hours at 37° C.

Ps. aeruginosa 10662 = experiment: Human bacteria MIC
Procedure: as §1

Staph. aureus Oxford = experiment: Human bacteria MIC; settings: Staphylococcus aureus
Procedure: as §1

Strep. Group C 64/848 = experiment: Human bacteria MIC
Procedure: as §1

[1] = test system: Corneybacterium xerosis 9755; experiment: Human bacteria MIC
Procedure: as §1

P. mirabilis 889 = experiment: Human bacteria MIC
Procedure: as §1

E. coli ESS = experiment: Human bacteria MIC; settings: Escherichia coli
Procedure: as §1

Staph. aureus W2827 = experiment: Human bacteria MIC; settings: Staphylococcus aureus; Staph. aureus W2827; nutrient agar, 5% chocolated horse blood, 18 hours 37° C.; read-out: M.I.C.
Procedure: as §1

Staph. aureus Russell = experiment: Human bacteria MIC; settings: Staphylococcus aureus
Procedure: as §1

Strep Group B 2788 = experiment: Human bacteria MIC
Procedure: as §1

Strep. faecalis I = experiment: Human bacteria MIC; settings: Enterococcus faecalis, nutrient agar, 5% chocolated horse blood, 18 hours 37° C.
Procedure: as §1

K. aerogenes A = experiment: Human bacteria MIC; settings: Klebsiella aerogenes
Procedure: as §1

Strep. pneumoniae CN33 = experiment: Human bacteria MIC; settings: Streptococcus pneumoniae
Procedure: as §1

[2] = test system: Neisseria catarralis 1502; experiment: Human bacteria MIC
Procedure: as §1

[3] = test system: Haemophilus influenzae Q1; experiment: Human bacteria MIC
Procedure: as §1

[4] = test system: Pasteurella multocida 1633; experiment: Human bacteria MIC
Procedure: as §1

E. Coli NCT 10418 = experiment: Human bacteria MIC; settings: Escherichia coli
Procedure: as §1

Bacillus subtilis 6633 = experiment: Human bacteria MIC
Procedure: as §1

M. suipneumoniae Str. 11 = experiment: Anti-mycoplasmal activity in vitro MIC; settings: Mesomycoplasma hyopneumoniae, 144 h; M. suipneumoniae Str. 11; Friis broth, 0.9% agarose, 6 days 37° C.; read-out: M.I.C.
M. bovis NCTC 10131 = experiment: microbe, parasite or virus in culture; settings: NCTC10131, 144 h
M. suipneumoniae LABER = experiment: Anti-mycoplasmal activity in vitro MIC; settings: Mesomycoplasma hyopneumoniae, 144 h; M. suipneumoniae LABER; Friis broth, 0.9% agarose, 6 days 37° C.; read-out: M.I.C.
M. dispar NCTC 10125 = experiment: Anti-mycoplasmal activity in vitro MIC; settings: 144 h
[5] = test system: M. suipneumoniae NCTC 10110; experiment: Anti-mycoplasmal activity in vitro MIC; settings: Mesomycoplasma hyopneumoniae, NCTC10110, 144 h
[6] = test system: M. bovigenitalium ATCC 14173; experiment: Anti-mycoplasmal activity in vitro MIC; settings: 144 h
M. suipneumoniae HK (2) = experiment: Anti-mycoplasmal activity in vitro MIC; settings: Mesomycoplasma hyopneumoniae, 144 h
[7] = test system: M. suipneumoniae ATCC 25095; experiment: Anti-mycoplasmal activity in vitro MIC; settings: Mesomycoplasma hyopneumoniae, ATCC25095, 144 h
M. hyorhinis ATCC 25021 = experiment: Anti-mycoplasmal activity in vitro MIC; settings: Mesomycoplasma hyorhinis, ATCC25021, 144 h
M. suipneumoniae NB12 = experiment: Anti-mycoplasmal activity in vitro MIC; settings: Mesomycoplasma hyopneumoniae, 144 h; M. suipneumoniae NB12; Friis broth, 0.9% agarose, 6 days 37° C.; read-out: M.I.C.

C/C(=C\C(=O)OCCCC(=NO)c1cccs1)C[C@@H]1OC[C@H](C[C@@H]2O[C@H]2[C@@H](C)[C@H](C)O)[C@@H](O)[C@H]1O [Example 4, 4-Hydroxyimino-4-(2-thienyl)butyl monate A]
MIC (M. suipneumoniae TAM 6N): 0.5 µg/mL (≈ 0.977 µM) | MIC (Strep. pyogenes R80/421; Strep. pyogenes R80/421, nutrient agar, 5% chocolated horse blood, 18 hours 37° C., read-out: M.I.C.): 1 µg/mL (≈ 1.95 µM) | MIC (Ps. aeruginosa 10662; Pseudomonas aeruginosa, Ps. aeruginosa 10662, nutrient agar, 5% chocolated horse blood, 18 hours 37° C., read-out: M.I.C.): > 100 µg/mL | MIC (Staph. aureus Oxford; Staph. aureus Oxford, nutrient agar, 5% chocolated horse blood, 18 hours 37° C., read-out: M.I.C.): 1 µg/mL (≈ 1.95 µM) | MIC (Strep. Group C 64/848; Strep. Group C 64/848, nutrient agar, 5% chocolated horse blood, 18 hours 37° C., read-out: M.I.C.): 1 µg/mL (≈ 1.95 µM) | MIC ([1]; Corneybacterium xerosis 9755, nutrient agar, 5% chocolated horse blood, 18 hours 37° C., read-out: M.I.C.): > 100 µg/mL | MIC (P. mirabilis 889; Proteus mirabilis, P. mirabilis 889, nutrient agar, 5% chocolated horse blood, 18 hours 37° C., read-out: M.I.C.): > 100 µg/mL | MIC (E. coli ESS; E. coli ESS, nutrient agar, 5% chocolated horse blood, 18 hours 37° C., read-out: M.I.C.): 2.5 µg/mL (≈ 4.89 µM) | MIC (Staph. aureus W2827): 2.5 µg/mL (≈ 4.89 µM) | MIC (Staph. aureus Russell; Staph. aureus Russell, nutrient agar, 5% chocolated horse blood, 18 hours 37° C., read-out: M.I.C.): 2.5 µg/mL (≈ 4.89 µM) | MIC (Strep Group B 2788; Strep Group B 2788, nutrient agar, 5% chocolated horse blood, 18 hours 37° C., read-out: M.I.C.): 2.5 µg/mL (≈ 4.89 µM) | MIC (Strep. faecalis I): 100 µg/mL (≈ 195 µM) | MIC (K. aerogenes A; K. aerogenes A, nutrient agar, 5% chocolated horse blood, 18 hours 37° C., read-out: M.I.C.): > 100 µg/mL | MIC (Strep. pneumoniae CN33; Strep. pneumoniae CN33, nutrient agar, 5% chocolated horse blood, 18 hours 37° C., read-out: M.I.C.): 1 µg/mL (≈ 1.95 µM) | MIC ([2]; Neisseria catarralis 1502, nutrient agar, 5% chocolated horse blood, 18 hours 37° C., read-out: M.I.C.): 0.5 µg/mL (≈ 0.977 µM) | MIC ([3]; Haemophilus influenzae Q1, nutrient agar, 5% chocolated horse blood, 18 hours 37° C., read-out: M.I.C.): 0.5 µg/mL (≈ 0.977 µM) | MIC ([4]; Pasteurella multocida 1633, nutrient agar, 5% chocolated horse blood, 18 hours 37° C., read-out: M.I.C.): 5 µg/mL (≈ 9.77 µM) | MIC (E. Coli NCT 10418; E. Coli NCT 10418, nutrient agar, 5% chocolated horse blood, 18 hours 37° C., read-out: M.I.C.): > 100 µg/mL | MIC (Bacillus subtilis 6633; Bacillus subtilis 6633, nutrient agar, 5% chocolated horse blood, 18 hours 37° C., read-out: M.I.C.): 1 µg/mL (≈ 1.95 µM) | MIC (M. suipneumoniae Str. 11): 0.25 µg/mL (≈ 0.489 µM) | MIC (M. bovis NCTC 10131): 0.025 µg/mL (≈ 0.0489 µM) | MIC (M. suipneumoniae LABER): 0.25 µg/mL (≈ 0.489 µM) | MIC (M. dispar NCTC 10125; M. dispar NCTC 10125, Friis broth, 0.9% agarose, 6 days 37° C., read-out: M.I.C.): 0.1 µg/mL (≈ 0.195 µM) | MIC [5]: 0.5 µg/mL (≈ 0.977 µM) | MIC [6]: 0.05 µg/mL (≈ 0.0977 µM) | MIC (M. suipneumoniae HK (2)): 0.5 µg/mL (≈ 0.977 µM) | MIC [7]: 0.5 µg/mL (≈ 0.977 µM) | MIC (M. hyorhinis ATCC 25021; M. hyorhinis ATCC 25021, Friis broth, 0.9% agarose, 6 days 37° C., read-out: M.I.C.): 0.25 µg/mL (≈ 0.489 µM) | MIC (M. suipneumoniae NB12): 0.25 µg/mL (≈ 0.489 µM)

C/C(=C\C(=O)OCCCCCC=NN(C)C)C[C@@H]1OC[C@H](C[C@@H]2O[C@H]2[C@@H](C)[C@H](C)O)[C@@H](O)[C@H]1O [Example 6, 6-Dimethylhydrazonohexyl monate A]
MIC (M. suipneumoniae TAM 6N): 1 µg/mL (≈ 2.06 µM) | MIC (Strep. pyogenes R80/421; R80/421, 18 h): 1 µg/mL (≈ 2.06 µM) | MIC (Ps. aeruginosa 10662; Pseudomonas aeruginosa, 10662, 18 h): > 100 µg/mL | MIC (Staph. aureus Oxford; 18 h): 0.1 µg/mL (≈ 0.206 µM) | MIC (Strep. Group C 64/848; 18 h): 1 µg/mL (≈ 2.06 µM) | MIC ([1]; 18 h): > 100 µg/mL | MIC (P. mirabilis 889; Proteus mirabilis, 889, 18 h): > 100 µg/mL | MIC (E. coli ESS; 18 h): 5 µg/mL (≈ 10.3 µM) | MIC (Staph. aureus W2827): 0.25 µg/mL (≈ 0.516 µM) | MIC (Staph. aureus Russell; 18 h): 0.25 µg/mL (≈ 0.516 µM) | MIC (Strep Group B 2788; 18 h): 1 µg/mL (≈ 2.06 µM) | MIC (Strep. faecalis I): > 100 µg/mL | MIC (K. aerogenes A; 18 h): > 100 µg/mL | MIC (Strep. pneumoniae CN33; CN33, 18 h): 1 µg/mL (≈ 2.06 µM) | MIC ([2]; Neisseria, 1502, 18 h): 0.05 µg/mL (≈ 0.103 µM) | MIC ([3]; Haemophilus influenzae, Q1, 18 h): 0.5 µg/mL (≈ 1.03 µM) | MIC ([4]; Pasteurella multocida, 1633, 18 h): 1 µg/mL (≈ 2.06 µM) | MIC (E. Coli NCT 10418; 18 h): > 100 µg/mL | MIC (Bacillus subtilis 6633; Bacillus subtilis, 6633, 18 h): 5 µg/mL (≈ 10.3 µM) | MIC (M. suipneumoniae Str. 11): 0.5 µg/mL (≈ 1.03 µM) | MIC (M. bovis NCTC 10131): ≤ 0.01 µg/mL | MIC (M. suipneumoniae LABER): 0.5 µg/mL (≈ 1.03 µM) | MIC (M. dispar NCTC 10125): 0.25 µg/mL (≈ 0.516 µM) | MIC ([5]; M. suipneumoniae NCTC 10110, Friis broth, 0.9% agarose, 6 days 37° C., read-out: M.I.C.): 0.5 µg/mL (≈ 1.03 µM) | MIC [6]: 0.025 µg/mL (≈ 0.0516 µM) | MIC (M. suipneumoniae HK (2)): 1 µg/mL (≈ 2.06 µM) | MIC ([7]; M. suipneumoniae ATCC 25095, Friis broth, 0.9% agarose, 6 days 37° C., read-out: M.I.C.): 0.5 µg/mL (≈ 1.03 µM) | MIC (M. hyorhinis ATCC 25021): 0.25 µg/mL (≈ 0.516 µM) | MIC (M. suipneumoniae NB12): 0.5 µg/mL (≈ 1.03 µM)

Reference: patent US4362743A, “Antibacterial monic acid esters” (Beecham Group Limited, priority 1980, dated 1982)
